SMILES strings stand for the structures.

In this assay the target is influenza virus neuraminidase (NA) (Influenza A virus, UniProt Q6DPL2). The settings on record: enzyme inhibition assay in vitro.
influenza virus neuraminidase (NA), sequence (Q6DPL2 whole entry, looked up): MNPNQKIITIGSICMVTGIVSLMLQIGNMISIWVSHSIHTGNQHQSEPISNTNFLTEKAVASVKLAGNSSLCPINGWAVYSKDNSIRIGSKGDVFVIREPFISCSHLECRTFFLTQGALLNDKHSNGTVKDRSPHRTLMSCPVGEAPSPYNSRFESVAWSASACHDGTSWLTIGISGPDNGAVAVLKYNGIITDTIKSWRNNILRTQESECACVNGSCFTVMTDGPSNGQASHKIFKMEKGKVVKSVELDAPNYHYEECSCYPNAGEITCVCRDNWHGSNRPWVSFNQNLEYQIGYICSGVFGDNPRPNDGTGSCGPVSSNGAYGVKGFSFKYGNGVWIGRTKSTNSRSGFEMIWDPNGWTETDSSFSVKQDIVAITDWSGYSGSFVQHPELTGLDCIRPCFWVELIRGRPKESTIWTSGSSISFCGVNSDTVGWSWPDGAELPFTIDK
Consider `C[C@]12C[C@@H](O)[C@@H]3C[C@@]1(O[C@@H]1O[C@H](CO)[C@@H](O)[C@H](O)[C@H]1O)[C@]3(COC(=O)c1ccccc1)C(=O)O2` [Albiflorin], for which the “NA inhibitory activity compared with the positive control Oseltamivir acid (in words)” value is “stronger activity against NA than Oseltamivir acid”. Turning to `C[C@@]12C[C@@]3(O)O[C@@H](O1)[C@]1(COC(=O)c4ccccc4)[C@H]3C[C@@]12O[C@@H]1O[C@H](COC(=O)c2ccccc2)[C@@H](O)[C@H](O)[C@H]1O` [Benzoylpaeoniflorin], the “NA inhibitory activity compared with the positive control Oseltamivir acid (in words)” value is reported as “stronger activity against NA than Oseltamivir acid”. Next, `C[C@@]12C[C@@]3(O)O[C@@H](O1)[C@]1(COC(=O)c4ccccc4)[C@H]3C[C@@]12O[C@@H]1O[C@H](CO)[C@@H](O)[C@H](O)[C@H]1O` [Paeoniflorin]: “stronger activity against NA than Oseltamivir acid”. Next, `O=C(OC[C@H]1O[C@@H](OC(=O)c2cc(O)c(O)c(O)c2)[C@H](OC(=O)c2cc(O)c(O)c(O)c2)[C@@H](OC(=O)c2cc(O)c(O)c(O)c2)[C@@H]1OC(=O)c1cc(O)c(O)c(O)c1)c1cc(O)c(O)c(O)c1` [pentagalloylglucose, Pentagalloyl glucose]: “stronger activity against NA than Oseltamivir acid”.

Values taken from publication PMC6273231 (Molecules, 2016).
